Test results from patent publication US20090253794A1, “Fibroblast Activator, Collagen Production Promoter, Collagen Contraction Promoter, Hyaluronic Acid Production Promoter, ATP Production Promoter, Melanin Formation Inhibitor, and Agent for External Application to the Skin” (priority 2005, published 2009).
“Also recorded” adds a separate entry of the source.

Experiments:
[1] = system: human normal melanocytes; assay: melanin formation suppression test in human melanocytes (L-DOPA, absorbance 495 nm); assay type: cell-based; details: 5 days, relative value, without addition of sample = 100
Description: A melanin formation suppression test was performed using human melanocytes (manufactured by KURABO INDUSTRIES LTD.). That is, human normal melanocytes amplified in Medium 254 medium (human melanocyte medium added with HMGS, manufactured by KURABO INDUSTRIES LTD.) was added to a 96 well plate at 10^4 cells per well, and cultured in a carbon dioxide incubator adjusted to 5% (v/v) carbon dioxide gas at 37° C. for about 24 hr. Then, pure water or a sample (conagenin) dissolved in pure water was added thereto to a final concentration of 0.1 mM, 1.0 mM or 10 mM. As a positive control, kojic acid (manufactured by Sigma Ltd.) was added to the same concentration. The cells were cultured for 5 more days under the same conditions. To the recovered cells was added 50 μl of cell suspension (PBS buffer containing Triton X-100 at 0.1% (v/v)). After thorough suspending, the suspension was stood at 4° C. for 1 hr. Thereto was added 50 μl of 10 mM L-DOPA (manufactured by Nacalai Tesque), and the mixture was incubated at 37° C. for 1 hr. Thereafter, the absorbance at 495 nm was measured by a plate reader (multiscanplus MKII, manufactured by Japan Flow Laboratory), and the melanin formation amount was measured (shown in a relative value to the value without addition of sample as 100).

[2] = system: B16 melanoma cells; assay: melanin formation suppression test, visual whitening and cell mass volume; assay type: cell-based, mouse; set-up: key to level of whitening: whitening high→++; whitening moderate→+; somewhat whitened→+−; no whitening→−; details: 5 days; for level of whitening: visual evaluation; for change in cell mass volume: visual, cytotoxicity index
Description: A melanin formation suppression test was performed as follows using mouse melanoma cells. First, 2×10^4 B16 melanoma cells were plated in a 35 mm diameter dish containing Eagle's minimum nutrition medium (3 ml) supplemented with 10% (v/v) fetal bovine serum, and cultured in a carbon dioxide incubator adjusted to 5% (v/v) carbon dioxide gas at 37° C. for about 24 hr. Then, pure water or a sample dissolved in pure water was added thereto to a final concentration of 0.1 mM, 1.0 mM or 10 mM. As a positive control, kojic acid (manufactured by Sigma Ltd.) was added to the same concentration. The cells were cultured for 5 more days under the same conditions, treated with trypsin, and centrifuged to collect the cells in a 1.5 ml Eppendorf. The level of whitening of the cells was visually evaluated, and indicated: whitening high→++; whitening moderate→+; somewhat whitened→+−; no whitening→−. Simultaneously, changes in the cell mass volume was visually evaluated and used as a cytotoxicity index.

Q: For `O=c1cc(CO)occ1O` [kojic acid, reference compound], which melanin formation amount ([1]; 100 μM) is on record?
A: 105

Q: What about the melanin formation amount ([1]; 1 mM) of the same compound?
A: 88

Q: What about the level of whitening ([2]; 0.1 mM) of the same compound?
A: +−

Q: What about the “change in cell mass volume” value ([2]; 0.1 mM) of the same compound?
A: none

Q: And the level of whitening ([2]; 1 mM)?
A: +

Q: And the “change in cell mass volume” value ([2]; 1 mM)?
A: none

Q: What about the “change in cell mass volume” value ([2]; 10 mM) of the same compound?
A: cell death occurred; also recorded: yes (cell death)
